# Where two headings read alike, the source gives them in different places.
# Assays:
# Assay in all cases: biochemical
# Parameters in all cases: KINOMEscan active site-directed competition binding assay (DiscoveRx), 456 kinases, per cent of control at 300 nM
# Settings in all cases: read-out: Percent of Control (%)
# NIM1 = molecular target: T1, NIM1 (Homo sapiens, UniProt Q8IY84)
# T1 construct: gene NIM1K
# Summary of the method: (§1)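 Single-concentration selectivity screen: compound 300 nmol/L; 456-kinase panel; active-site-directed competition binding read-out.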
# NEK5 = NEK5 (Homo sapiens, UniProt Q6P3R8)
# Summary of the method: as §1
# HPK1 = molecular target: T2, HPK1 (Homo sapiens, UniProt Q92918)
# T2 construct: gene MAP4K1
# Summary of the method: as §1
# MLK1 = molecular target: T3, MLK1 (Homo sapiens, UniProt P80192)
# T3 construct: gene MAP3K9
# Summary of the method: as §1
# CDK11 = molecular target: T4, CDK11 (Homo sapiens, UniProt Q9BWU1)
# T4 construct: gene CDK19
# Summary of the method: as §1
# ROCK2 = ROCK2 (Homo sapiens, UniProt O75116)
# Summary of the method: as §1
# HIPK2 = HIPK2 (Homo sapiens, UniProt Q9H2X6)
# Summary of the method: as §1
# [1] = molecular target: T5, TYK2(JH1domain-catalytic) (Homo sapiens, UniProt P29597)
# T5 construct: JH1domain-catalytic
# Summary of the method: as §1
# AKT3 = AKT3 (Homo sapiens, UniProt Q9Y243)
# Summary of the method: as §1
# VEGFR2 = molecular target: T6, VEGFR2 (Homo sapiens, UniProt P35968)
# T6 construct: gene KDR
# Summary of the method: as §1
# LRRK2(G2019S) = LRRK2(G2019S) (Homo sapiens, UniProt Q5S007, G2019S)
# Summary of the method: as §1
# MYLK = MYLK (Homo sapiens, UniProt Q15746)
# Summary of the method: as §1
# [2] = molecular target: T7, ABL1(T315I)-phosphorylated (Homo sapiens, UniProt P00519, T315I)
# T7 construct: phosphorylated
# Summary of the method: as §1
# [3] = molecular target: T8, ABL1(F317L)-phosphorylated (Homo sapiens, UniProt P00519, F317L)
# T8 construct: phosphorylated
# Summary of the method: as §1
# ACVR1B = ACVR1B (Homo sapiens, UniProt P36896)
# Summary of the method: as §1
# PIP5K2B = molecular target: T9, PIP5K2B (Homo sapiens, UniProt P78356)
# T9 construct: gene PIP4K2B
# Summary of the method: as §1
# PRKG2 = PRKG2 (Homo sapiens, UniProt Q13237)
# Summary of the method: as §1
# IGF1R = IGF1R (Homo sapiens, UniProt P08069)
# Summary of the method: as §1
# STK33 = STK33 (Homo sapiens, UniProt Q9BYT3)
# Summary of the method: as §1
# MET(M1250T) = MET(M1250T) (Homo sapiens, UniProt P08581, M1250T)
# Summary of the method: as §1
# CDK2 = CDK2 (Homo sapiens, UniProt P24941)
# Summary of the method: as §1
# HIPK2, sequence (Q9H2X6 whole entry): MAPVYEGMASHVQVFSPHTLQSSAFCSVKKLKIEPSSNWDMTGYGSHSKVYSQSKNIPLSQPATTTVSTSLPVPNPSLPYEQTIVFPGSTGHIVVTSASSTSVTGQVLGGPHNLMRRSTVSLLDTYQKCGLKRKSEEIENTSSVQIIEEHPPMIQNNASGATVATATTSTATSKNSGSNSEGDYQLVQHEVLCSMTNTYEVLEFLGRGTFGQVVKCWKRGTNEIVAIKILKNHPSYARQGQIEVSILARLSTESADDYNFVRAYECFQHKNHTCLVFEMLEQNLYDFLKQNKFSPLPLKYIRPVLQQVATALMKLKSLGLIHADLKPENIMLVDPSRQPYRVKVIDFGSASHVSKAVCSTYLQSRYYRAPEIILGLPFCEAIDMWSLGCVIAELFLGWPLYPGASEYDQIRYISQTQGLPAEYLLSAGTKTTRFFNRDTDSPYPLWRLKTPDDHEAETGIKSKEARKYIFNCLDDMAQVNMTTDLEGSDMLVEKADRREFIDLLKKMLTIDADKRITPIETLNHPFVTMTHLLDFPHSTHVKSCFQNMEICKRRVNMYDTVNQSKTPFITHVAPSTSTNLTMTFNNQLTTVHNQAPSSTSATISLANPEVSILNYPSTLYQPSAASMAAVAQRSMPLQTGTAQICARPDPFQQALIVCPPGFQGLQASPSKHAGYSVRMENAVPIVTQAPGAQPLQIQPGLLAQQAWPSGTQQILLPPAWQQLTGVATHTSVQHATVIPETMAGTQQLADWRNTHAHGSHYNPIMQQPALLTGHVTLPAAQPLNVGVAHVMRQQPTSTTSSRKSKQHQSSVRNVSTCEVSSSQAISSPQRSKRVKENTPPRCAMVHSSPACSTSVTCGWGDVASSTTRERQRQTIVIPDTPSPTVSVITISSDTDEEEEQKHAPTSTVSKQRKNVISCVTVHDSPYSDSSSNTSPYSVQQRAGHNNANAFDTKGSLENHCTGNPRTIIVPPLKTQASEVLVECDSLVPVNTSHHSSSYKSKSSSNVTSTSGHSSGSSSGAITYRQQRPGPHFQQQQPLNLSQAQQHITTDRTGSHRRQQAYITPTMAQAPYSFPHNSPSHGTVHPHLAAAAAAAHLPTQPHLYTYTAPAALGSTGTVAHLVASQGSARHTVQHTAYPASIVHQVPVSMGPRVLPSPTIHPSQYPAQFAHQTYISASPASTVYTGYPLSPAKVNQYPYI
# IGF1R, sequence (P08069 whole entry): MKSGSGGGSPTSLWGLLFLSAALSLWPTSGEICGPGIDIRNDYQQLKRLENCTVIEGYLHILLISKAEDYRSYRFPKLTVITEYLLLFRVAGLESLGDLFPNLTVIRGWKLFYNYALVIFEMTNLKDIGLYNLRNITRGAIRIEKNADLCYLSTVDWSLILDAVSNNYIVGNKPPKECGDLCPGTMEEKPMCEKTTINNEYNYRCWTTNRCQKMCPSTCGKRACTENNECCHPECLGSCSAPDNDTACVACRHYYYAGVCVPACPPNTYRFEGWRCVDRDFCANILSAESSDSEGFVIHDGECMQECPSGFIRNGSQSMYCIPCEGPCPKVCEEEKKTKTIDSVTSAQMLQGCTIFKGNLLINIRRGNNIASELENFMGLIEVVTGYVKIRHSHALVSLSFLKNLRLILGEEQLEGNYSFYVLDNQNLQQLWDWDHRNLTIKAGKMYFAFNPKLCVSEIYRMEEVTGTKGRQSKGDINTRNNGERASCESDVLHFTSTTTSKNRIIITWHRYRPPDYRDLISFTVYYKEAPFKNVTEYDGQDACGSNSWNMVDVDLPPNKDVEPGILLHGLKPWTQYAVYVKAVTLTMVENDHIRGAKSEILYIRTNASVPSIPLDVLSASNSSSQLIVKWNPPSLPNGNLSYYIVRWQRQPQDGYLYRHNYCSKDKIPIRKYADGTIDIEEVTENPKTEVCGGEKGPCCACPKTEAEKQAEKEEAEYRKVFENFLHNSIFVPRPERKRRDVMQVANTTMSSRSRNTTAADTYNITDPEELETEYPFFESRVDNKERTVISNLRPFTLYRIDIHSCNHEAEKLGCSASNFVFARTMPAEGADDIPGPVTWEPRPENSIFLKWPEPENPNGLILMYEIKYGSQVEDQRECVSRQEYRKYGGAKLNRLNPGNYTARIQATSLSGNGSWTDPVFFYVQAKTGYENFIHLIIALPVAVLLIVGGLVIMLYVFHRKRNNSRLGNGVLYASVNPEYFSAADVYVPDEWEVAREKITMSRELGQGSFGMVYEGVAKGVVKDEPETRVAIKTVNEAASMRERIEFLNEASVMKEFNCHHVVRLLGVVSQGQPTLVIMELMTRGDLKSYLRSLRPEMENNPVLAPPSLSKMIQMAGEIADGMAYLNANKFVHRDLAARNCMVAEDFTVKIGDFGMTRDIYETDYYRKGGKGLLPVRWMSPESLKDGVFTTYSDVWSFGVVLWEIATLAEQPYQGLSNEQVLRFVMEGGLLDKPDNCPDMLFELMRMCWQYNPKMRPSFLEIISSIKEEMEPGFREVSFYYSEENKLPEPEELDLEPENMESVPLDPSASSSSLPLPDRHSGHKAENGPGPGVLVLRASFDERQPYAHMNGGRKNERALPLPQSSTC
# PRKG2, sequence (Q13237 whole entry): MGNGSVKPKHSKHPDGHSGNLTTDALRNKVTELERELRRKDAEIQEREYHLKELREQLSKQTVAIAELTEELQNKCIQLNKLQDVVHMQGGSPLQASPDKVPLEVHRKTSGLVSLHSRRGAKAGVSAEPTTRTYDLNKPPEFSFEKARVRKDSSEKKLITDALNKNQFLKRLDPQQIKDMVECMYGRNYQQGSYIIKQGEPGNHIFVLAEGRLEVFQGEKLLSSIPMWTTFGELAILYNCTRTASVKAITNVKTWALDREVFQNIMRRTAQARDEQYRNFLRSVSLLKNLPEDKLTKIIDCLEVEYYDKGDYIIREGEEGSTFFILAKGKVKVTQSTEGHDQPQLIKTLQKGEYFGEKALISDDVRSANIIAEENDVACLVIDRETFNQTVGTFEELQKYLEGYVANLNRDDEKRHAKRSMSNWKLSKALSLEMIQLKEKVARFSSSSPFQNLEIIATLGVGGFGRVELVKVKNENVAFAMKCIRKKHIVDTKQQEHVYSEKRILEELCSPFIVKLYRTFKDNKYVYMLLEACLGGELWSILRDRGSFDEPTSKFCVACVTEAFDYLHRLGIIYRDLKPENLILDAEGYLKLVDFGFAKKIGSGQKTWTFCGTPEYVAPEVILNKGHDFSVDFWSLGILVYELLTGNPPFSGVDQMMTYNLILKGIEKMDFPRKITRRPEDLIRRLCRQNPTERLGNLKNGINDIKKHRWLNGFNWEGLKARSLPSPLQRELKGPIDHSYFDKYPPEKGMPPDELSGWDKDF
# ROCK2, sequence (O75116 whole entry): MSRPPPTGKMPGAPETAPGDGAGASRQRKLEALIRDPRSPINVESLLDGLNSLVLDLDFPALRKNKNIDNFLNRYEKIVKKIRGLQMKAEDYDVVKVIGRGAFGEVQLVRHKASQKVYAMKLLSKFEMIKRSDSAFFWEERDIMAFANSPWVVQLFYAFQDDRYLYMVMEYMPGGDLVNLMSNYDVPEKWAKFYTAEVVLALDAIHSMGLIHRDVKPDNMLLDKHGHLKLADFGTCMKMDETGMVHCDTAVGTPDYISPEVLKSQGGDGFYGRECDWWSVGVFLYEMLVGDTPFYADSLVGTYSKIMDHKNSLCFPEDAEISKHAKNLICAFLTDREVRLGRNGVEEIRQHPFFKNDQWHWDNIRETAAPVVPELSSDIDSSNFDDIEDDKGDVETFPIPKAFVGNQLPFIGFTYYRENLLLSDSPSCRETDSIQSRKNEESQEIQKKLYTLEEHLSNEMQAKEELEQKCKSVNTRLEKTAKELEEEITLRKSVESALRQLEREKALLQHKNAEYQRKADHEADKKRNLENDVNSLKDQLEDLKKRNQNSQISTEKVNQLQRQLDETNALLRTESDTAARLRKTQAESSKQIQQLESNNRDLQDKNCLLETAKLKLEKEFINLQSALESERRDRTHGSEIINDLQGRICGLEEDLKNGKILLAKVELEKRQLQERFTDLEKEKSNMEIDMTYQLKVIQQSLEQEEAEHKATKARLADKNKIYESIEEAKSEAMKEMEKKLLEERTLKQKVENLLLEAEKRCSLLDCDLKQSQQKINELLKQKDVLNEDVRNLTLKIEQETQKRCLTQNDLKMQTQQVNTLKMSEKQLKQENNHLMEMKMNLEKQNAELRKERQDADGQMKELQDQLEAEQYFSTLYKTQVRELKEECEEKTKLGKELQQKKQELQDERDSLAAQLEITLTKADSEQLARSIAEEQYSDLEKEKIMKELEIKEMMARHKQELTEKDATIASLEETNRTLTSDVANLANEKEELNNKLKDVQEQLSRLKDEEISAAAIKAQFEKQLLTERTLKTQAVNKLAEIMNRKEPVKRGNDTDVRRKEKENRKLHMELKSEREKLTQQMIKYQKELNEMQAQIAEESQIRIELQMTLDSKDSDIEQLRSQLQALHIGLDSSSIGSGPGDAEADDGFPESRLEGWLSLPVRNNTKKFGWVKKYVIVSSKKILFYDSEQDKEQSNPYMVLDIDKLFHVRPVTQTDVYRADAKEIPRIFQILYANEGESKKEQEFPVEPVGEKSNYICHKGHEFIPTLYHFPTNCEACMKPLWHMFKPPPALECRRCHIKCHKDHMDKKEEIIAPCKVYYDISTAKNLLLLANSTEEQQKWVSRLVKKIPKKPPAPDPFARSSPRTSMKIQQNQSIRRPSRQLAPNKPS
# T9 sequence (P78356 whole entry): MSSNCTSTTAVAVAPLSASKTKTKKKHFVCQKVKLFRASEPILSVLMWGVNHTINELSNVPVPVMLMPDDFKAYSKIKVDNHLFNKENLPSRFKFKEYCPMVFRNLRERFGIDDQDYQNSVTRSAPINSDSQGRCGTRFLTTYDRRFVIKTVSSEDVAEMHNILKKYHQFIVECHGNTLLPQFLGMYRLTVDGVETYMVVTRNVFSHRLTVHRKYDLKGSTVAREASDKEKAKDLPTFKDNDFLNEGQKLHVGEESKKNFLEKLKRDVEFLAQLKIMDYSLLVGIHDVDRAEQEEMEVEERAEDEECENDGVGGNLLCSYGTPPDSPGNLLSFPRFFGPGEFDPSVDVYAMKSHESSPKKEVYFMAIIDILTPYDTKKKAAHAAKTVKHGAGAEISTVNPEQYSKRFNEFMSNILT
compound,measurement,setting,value
"O=C(/C=C/c1cnccc1-c1ccc(F)cc1)Nc1ccc(CCc2nnco2)cc1 [T-418, (2E)-3-(4-(4-fluorophenyl)pyridin-3-yl)-N-(4-(2-(1,3,4-oxadiazol-2-yl)ethyl)phenyl)acrylamide]",remaining binding at 0.3 µM,NIM1; sheet T-418,100%
same,remaining binding at 0.3 µM,NEK5; sheet T-418,100%
same,remaining binding at 0.3 µM,HPK1; sheet T-418,95%
same,remaining binding at 0.3 µM,MLK1; sheet T-418,100%
same,remaining binding at 0.3 µM,CDK11; sheet T-418,6.4%
same,remaining binding at 0.3 µM,ROCK2; sheet T-418,92%
same,remaining binding at 0.3 µM,HIPK2; sheet T-418,53%
same,remaining binding at 0.3 µM,[1]; sheet T-418,40%
same,remaining binding at 0.3 µM,AKT3; sheet T-418,100%
same,remaining binding at 0.3 µM,VEGFR2; sheet T-418,100%
same,remaining binding at 0.3 µM,LRRK2(G2019S); sheet T-418,84%
same,remaining binding at 0.3 µM,MYLK; sheet T-418,100%
same,remaining binding at 0.3 µM,[2]; sheet T-418,100%
same,remaining binding at 0.3 µM,[3]; sheet T-418,100%
same,remaining binding at 0.3 µM,ACVR1B; sheet T-418,77%
same,remaining binding at 0.3 µM,PIP5K2B; sheet T-418,94%
same,remaining binding at 0.3 µM,PRKG2; sheet T-418,49%
same,remaining binding at 0.3 µM,IGF1R; sheet T-418,87%
same,remaining binding at 0.3 µM,STK33; sheet T-418,91%
same,remaining binding at 0.3 µM,MET(M1250T); sheet T-418,97%
same,remaining binding at 0.3 µM,CDK2; sheet T-418,92%
"Cc1ncccc1Oc1sc(C(N)=O)c2c1-c1c(cnn1C)CC2 [T-474, 1-methyl-8-((2-methylpyridin-3-yl)oxy)-4,5-dihydro-1H-thieno[3,4-g]indazole-6-carboxamide]",remaining binding at 0.3 µM,NIM1,63%
same,remaining binding at 0.3 µM,NEK5,100%
same,remaining binding at 0.3 µM,HPK1,78%
same,remaining binding at 0.3 µM,MLK1,100%
same,remaining binding at 0.3 µM,CDK11,1.1%
same,remaining binding at 0.3 µM,ROCK2,81%
same,remaining binding at 0.3 µM,HIPK2,42%
same,remaining binding at 0.3 µM,[1],40%
same,remaining binding at 0.3 µM,AKT3,97%
same,remaining binding at 0.3 µM,VEGFR2,100%
same,remaining binding at 0.3 µM,LRRK2(G2019S),88%
same,remaining binding at 0.3 µM,MYLK,100%
same,remaining binding at 0.3 µM,[2],100%
same,remaining binding at 0.3 µM,[3],100%
same,remaining binding at 0.3 µM,ACVR1B,77%
same,remaining binding at 0.3 µM,PIP5K2B,100%
same,remaining binding at 0.3 µM,PRKG2,48%
same,remaining binding at 0.3 µM,IGF1R,98%
same,remaining binding at 0.3 µM,STK33,86%
same,remaining binding at 0.3 µM,MET(M1250T),100%
same,remaining binding at 0.3 µM,CDK2,98%

# Reference: publication PMC5862592, “CDK8/19 inhibition induces premature G1/S transition and ATR-dependent cell death in prostate cancer cells” (Oncotarget, 2018)
